Data from PubChem BioAssay (NCI).
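48-hour exposure; five concentrations; linearly interpolated endpoints. At the GI50, growth is halved. TGI marks complete inhibition of growth.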

system: A498 renal; test: DTP human tumour cell line panel, 48 h

**Q.** O=c1c(-c2ccccc2)c(SCCN2CCCC2)n(-c2ccccc2)c(=S)n1-c1ccccc1 was tested. Which TGI did it give?
**A.** > 100 µM

**Q.** With O=C1C(Cl)=C(Cl)C(Cl)(Cl)C(Cl)C1(Cl)Cl (stereo unspecified) as the compound, how does the TGI read?
**A.** 29.8 µM

**Q.** How did the TGI turn out when COc1ccccc1-c1cc(=O)c2c(C)cc(C)nc2[nH]1 was run?
**A.** > 100 µM

**Q.** Which TGI does the source give for C=CC(O)(CBr)CCC(Br)C(C)(C)Cl (stereo unspecified) here?
**A.** > 10 µM

system: SW-620 colon; test: DTP human tumour cell line panel, 48 h

**Q.** For O=c1cn[nH]c2nc3ccccc3n12, which TGI is on record?
**A.** > 100 µM

**Q.** For O=c1c(-c2ccccc2)c(SCCN2CCCC2)n(-c2ccccc2)c(=S)n1-c1ccccc1, which TGI is on record?
**A.** > 100 µM

**Q.** With O=C1C(Cl)=C(Cl)C(Cl)(Cl)C(Cl)C1(Cl)Cl (stereo unspecified) as the compound, how does the TGI read?
**A.** 54.7 µM

**Q.** Which TGI does the source give for COc1ccccc1-c1cc(=O)c2c(C)cc(C)nc2[nH]1 here?
**A.** > 100 µM

**Q.** C=CC(O)(CBr)CCC(Br)C(C)(C)Cl (stereo unspecified) was tested. Which TGI did it give?
**A.** > 10 µM

system: EKVX NSCLC; test: DTP human tumour cell line panel, 48 h

**Q.** For O=c1cn[nH]c2nc3ccccc3n12, which TGI is on record?
**A.** > 100 µM

**Q.** With O=c1c(-c2ccccc2)c(SCCN2CCCC2)n(-c2ccccc2)c(=S)n1-c1ccccc1 as the compound, how does the TGI read?
**A.** > 100 µM

**Q.** O=C1C(Cl)=C(Cl)C(Cl)(Cl)C(Cl)C1(Cl)Cl (stereo unspecified) was tested. Which TGI did it give?
**A.** 50.9 µM

**Q.** COc1ccccc1-c1cc(=O)c2c(C)cc(C)nc2[nH]1 was tested. Which TGI did it give?
**A.** > 100 µM

**Q.** With C=CC(O)(CBr)CCC(Br)C(C)(C)Cl (stereo unspecified) as the compound, how does the TGI read?
**A.** > 10 µM

system: OVCAR-3 ovarian; test: DTP human tumour cell line panel, 48 h

**Q.** Which TGI does the source give for O=C1C(Cl)=C(Cl)C(Cl)(Cl)C(Cl)C1(Cl)Cl (stereo unspecified) here?
**A.** 47.4 µM

**Q.** For COc1ccccc1-c1cc(=O)c2c(C)cc(C)nc2[nH]1, which GI50 is on record?
**A.** 64.2 µM

**Q.** And the TGI?
**A.** > 100 µM

**Q.** C=CC(O)(CBr)CCC(Br)C(C)(C)Cl (stereo unspecified) was tested. Which TGI did it give?
**A.** > 10 µM

system: NCI-H522 lung; test: DTP human tumour cell line panel, 48 h

**Q.** Which TGI does the source give for O=c1cn[nH]c2nc3ccccc3n12 here?
**A.** > 100 µM

**Q.** With O=c1c(-c2ccccc2)c(SCCN2CCCC2)n(-c2ccccc2)c(=S)n1-c1ccccc1 as the compound, how does the TGI read?
**A.** > 100 µM

**Q.** How did the TGI turn out when O=C1C(Cl)=C(Cl)C(Cl)(Cl)C(Cl)C1(Cl)Cl (stereo unspecified) was run?
**A.** 32.5 µM

**Q.** How did the TGI turn out when COc1ccccc1-c1cc(=O)c2c(C)cc(C)nc2[nH]1 was run?
**A.** > 100 µM

**Q.** For C=CC(O)(CBr)CCC(Br)C(C)(C)Cl (stereo unspecified), which TGI is on record?
**A.** > 10 µM

system: SK-OV-3 ovarian; test: DTP human tumour cell line panel, 48 h

**Q.** With O=c1c(-c2ccccc2)c(SCCN2CCCC2)n(-c2ccccc2)c(=S)n1-c1ccccc1 as the compound, how does the TGI read?
**A.** > 100 µM

**Q.** For O=C1C(Cl)=C(Cl)C(Cl)(Cl)C(Cl)C1(Cl)Cl (stereo unspecified), which TGI is on record?
**A.** 74.1 µM

**Q.** How did the TGI turn out when COc1ccccc1-c1cc(=O)c2c(C)cc(C)nc2[nH]1 was run?
**A.** > 100 µM

**Q.** For C=CC(O)(CBr)CCC(Br)C(C)(C)Cl (stereo unspecified), which TGI is on record?
**A.** > 10 µM

system: RXF 393 renal; test: DTP human tumour cell line panel, 48 h

**Q.** O=c1cn[nH]c2nc3ccccc3n12 was tested. Which TGI did it give?
**A.** > 100 µM

**Q.** For O=c1c(-c2ccccc2)c(SCCN2CCCC2)n(-c2ccccc2)c(=S)n1-c1ccccc1, which TGI is on record?
**A.** > 100 µM

**Q.** With O=C1C(Cl)=C(Cl)C(Cl)(Cl)C(Cl)C1(Cl)Cl (stereo unspecified) as the compound, how does the TGI read?
**A.** 44.5 µM

**Q.** With COc1ccccc1-c1cc(=O)c2c(C)cc(C)nc2[nH]1 as the compound, how does the TGI read?
**A.** > 100 µM

**Q.** For C=CC(O)(CBr)CCC(Br)C(C)(C)Cl (stereo unspecified), which TGI is on record?
**A.** > 10 µM

system: NCI/ADR-RES ovarian; test: DTP human tumour cell line panel, 48 h

**Q.** O=c1cn[nH]c2nc3ccccc3n12 was tested. Which TGI did it give?
**A.** > 100 µM

**Q.** For O=c1c(-c2ccccc2)c(SCCN2CCCC2)n(-c2ccccc2)c(=S)n1-c1ccccc1, which TGI is on record?
**A.** > 100 µM

**Q.** For O=C1C(Cl)=C(Cl)C(Cl)(Cl)C(Cl)C1(Cl)Cl (stereo unspecified), which TGI is on record?
**A.** 64 µM

**Q.** With COc1ccccc1-c1cc(=O)c2c(C)cc(C)nc2[nH]1 as the compound, how does the TGI read?
**A.** > 100 µM

**Q.** For C=CC(O)(CBr)CCC(Br)C(C)(C)Cl (stereo unspecified), which TGI is on record?
**A.** > 10 µM

system: SF-295 CNS; test: DTP human tumour cell line panel, 48 h

**Q.** O=c1cn[nH]c2nc3ccccc3n12 was tested. Which TGI did it give?
**A.** > 100 µM

**Q.** O=c1c(-c2ccccc2)c(SCCN2CCCC2)n(-c2ccccc2)c(=S)n1-c1ccccc1 was tested. Which TGI did it give?
**A.** > 100 µM

**Q.** Which TGI does the source give for O=C1C(Cl)=C(Cl)C(Cl)(Cl)C(Cl)C1(Cl)Cl (stereo unspecified) here?
**A.** 50.8 µM

**Q.** Which GI50 does the source give for COc1ccccc1-c1cc(=O)c2c(C)cc(C)nc2[nH]1 here?
**A.** 53.1 µM

**Q.** And the TGI?
**A.** > 100 µM

**Q.** Which TGI does the source give for C=CC(O)(CBr)CCC(Br)C(C)(C)Cl (stereo unspecified) here?
**A.** > 10 µM

system: NCI-H460 lung; test: DTP human tumour cell line panel, 48 h

**Q.** O=c1cn[nH]c2nc3ccccc3n12 was tested. Which TGI did it give?
**A.** > 100 µM

**Q.** With O=c1c(-c2ccccc2)c(SCCN2CCCC2)n(-c2ccccc2)c(=S)n1-c1ccccc1 as the compound, how does the TGI read?
**A.** > 100 µM

**Q.** Which TGI does the source give for O=C1C(Cl)=C(Cl)C(Cl)(Cl)C(Cl)C1(Cl)Cl (stereo unspecified) here?
**A.** 47.4 µM

**Q.** COc1ccccc1-c1cc(=O)c2c(C)cc(C)nc2[nH]1 was tested. Which GI50 did it give?
**A.** 70.1 µM

**Q.** And the TGI?
**A.** > 100 µM

**Q.** C=CC(O)(CBr)CCC(Br)C(C)(C)Cl (stereo unspecified) was tested. Which TGI did it give?
**A.** > 10 µM

system: SF-268 CNS; test: DTP human tumour cell line panel, 48 h

**Q.** Which TGI does the source give for O=c1cn[nH]c2nc3ccccc3n12 here?
**A.** > 100 µM

**Q.** O=c1c(-c2ccccc2)c(SCCN2CCCC2)n(-c2ccccc2)c(=S)n1-c1ccccc1 was tested. Which TGI did it give?
**A.** > 100 µM

**Q.** For O=C1C(Cl)=C(Cl)C(Cl)(Cl)C(Cl)C1(Cl)Cl (stereo unspecified), which TGI is on record?
**A.** 51.3 µM

**Q.** Which TGI does the source give for COc1ccccc1-c1cc(=O)c2c(C)cc(C)nc2[nH]1 here?
**A.** > 100 µM

**Q.** C=CC(O)(CBr)CCC(Br)C(C)(C)Cl (stereo unspecified) was tested. Which TGI did it give?
**A.** > 10 µM

system: A549 NSCLC; test: DTP human tumour cell line panel, 48 h

**Q.** O=c1cn[nH]c2nc3ccccc3n12 was tested. Which TGI did it give?
**A.** > 100 µM

**Q.** O=c1c(-c2ccccc2)c(SCCN2CCCC2)n(-c2ccccc2)c(=S)n1-c1ccccc1 was tested. Which TGI did it give?
**A.** > 100 µM

**Q.** O=C1C(Cl)=C(Cl)C(Cl)(Cl)C(Cl)C1(Cl)Cl (stereo unspecified) was tested. Which TGI did it give?
**A.** 51.3 µM

**Q.** With COc1ccccc1-c1cc(=O)c2c(C)cc(C)nc2[nH]1 as the compound, how does the TGI read?
**A.** > 100 µM

**Q.** C=CC(O)(CBr)CCC(Br)C(C)(C)Cl (stereo unspecified) was tested. Which TGI did it give?
**A.** > 10 µM

system: UACC-257 melanoma; test: DTP human tumour cell line panel, 48 h

**Q.** For O=c1cn[nH]c2nc3ccccc3n12, which TGI is on record?
**A.** > 100 µM

**Q.** How did the TGI turn out when O=c1c(-c2ccccc2)c(SCCN2CCCC2)n(-c2ccccc2)c(=S)n1-c1ccccc1 was run?
**A.** > 100 µM

**Q.** Which TGI does the source give for O=C1C(Cl)=C(Cl)C(Cl)(Cl)C(Cl)C1(Cl)Cl (stereo unspecified) here?
**A.** 44.8 µM

**Q.** Which TGI does the source give for COc1ccccc1-c1cc(=O)c2c(C)cc(C)nc2[nH]1 here?
**A.** > 100 µM

**Q.** With C=CC(O)(CBr)CCC(Br)C(C)(C)Cl (stereo unspecified) as the compound, how does the TGI read?
**A.** > 10 µM

system: MOLT-4 leukemia; test: DTP human tumour cell line panel, 48 h

**Q.** With O=c1cn[nH]c2nc3ccccc3n12 as the compound, how does the TGI read?
**A.** > 100 µM

**Q.** O=c1c(-c2ccccc2)c(SCCN2CCCC2)n(-c2ccccc2)c(=S)n1-c1ccccc1 was tested. Which TGI did it give?
**A.** > 100 µM

**Q.** COc1ccccc1-c1cc(=O)c2c(C)cc(C)nc2[nH]1 was tested. Which TGI did it give?
**A.** > 100 µM

**Q.** For C=CC(O)(CBr)CCC(Br)C(C)(C)Cl (stereo unspecified), which TGI is on record?
**A.** > 10 µM

system: BT-549 breast; test: DTP human tumour cell line panel, 48 h

**Q.** With O=c1cn[nH]c2nc3ccccc3n12 as the compound, how does the TGI read?
**A.** > 100 µM

**Q.** O=c1c(-c2ccccc2)c(SCCN2CCCC2)n(-c2ccccc2)c(=S)n1-c1ccccc1 was tested. Which TGI did it give?
**A.** > 100 µM

**Q.** O=C1C(Cl)=C(Cl)C(Cl)(Cl)C(Cl)C1(Cl)Cl (stereo unspecified) was tested. Which TGI did it give?
**A.** 54.1 µM
